Measured values as given in patent US8642013B2, “Nano-scale contrast agents and methods of use” (priority 2008, dated 2014).

Assay: blood concentration and clearance after injection in tumor-bearing rats
Format: in vivo, Fischer female rats
Details: high iodine dose (1,344 mgl/mL)
Experimental: Contrast-enhanced mammography was performed with a commercial digital mammography system (Senographe 2000D, GE Healthcare) at 49 kVp and 63 mAs with a rhodium target and an extra copper filter of 0.3 mm thickness. These settings were used to shape the x-rays to have optimal energies for iodine. […] Initial studies were performed with high doses of the nano-probe to obtain a vascular image. A pre-contrast image (FIG. 2(a)) and post-contrast images were acquired 1, 5, 10, and 15 minutes after tail vein injection of the nano-probe. […] In the case of an adult human, this would correspond to a dose of about 654 mL of the nano-probe (assuming a blood volume of five liters), which is prohibitively large for use in humans. However, this high dose was used to clearly visualize the blood vessels that the mammography system was capable of detecting.
Another control group was injected with a conventional iodinated agent (iohexol) at an iodine dose equivalent to the high dose of 1,344 mgl/mL of the nano-probe. (See FIG. 7). […] (See FIG. 8).

In the case of `CC(=O)N(CC(O)CO)c1c(I)c(C(=O)NCC(O)CO)c(I)c(C(=O)NCC(O)CO)c1I` (stereo not shown) [iohexol], the clearance is reported as “rapidly cleared via the kidneys”.
